Read-outs that look alike come from different tables or passages of the source.
Experiments:
cyclin KeGFP = test: Cyclin KeGFP reporter system (eGFP/mCherry MFI by flow cytometry);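 note: 10 μM compound for 3 h relative to DMSO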; format: cell-based, H. sapiens; settings: cyclin K-eGFP reporter
Method: We used the cyclin KeGFP reporter system previously described (Słabicki et al, [2020]). Lentiviral vector (Addgene plasmid #169930) was used to infect OCI-AML5 at a MOI of 5 and were selected with puromycin. Cells were seeded in methylcellulose and let grown as colonies for 10 days. Colonies were isolated, expanded and selected based on cyclin KeGFP fluorescence in presence and absence of cyclin K degrader molecules. Selected G7 clone was used for all reported experiments. Fluorescent signal of cyclin KeGFP and mCherry were quantified by flow cytometry (BD LSRII) in each condition and the geometric mean fluorescence intensity (MFI) were calculated using FlowJo (BD Biosciences). The ratio of eGFP to mCherry was normalized to DMSO-treated cells.

OCI-AML5 cells = test: Dose-response proliferative assay in OCI-AML5 (4 days, CellTiterGlo); format: cell-based, H. sapiens; settings: read-out: IC50 in AML5
Method: Cell lines were purchased from the ATCC or donated from collaborators. OCI-AML5 cell line was cultured in αMEM, 10% heat-inactivated FBS supplemented with 10 ng/mL GM-CSF, OCI-AML1, U2OS and HEK293T cell lines in DMEM, 10% heat-inactivated FBS. Cells were maintained at 37 °C in 5% CO2 atmosphere.
Dose-response assays in primary AML specimens were performed as in chemical screen (see above) with the exception that compounds were tested in serial dilution (8 dilutions, 1:4, 10 μM down to 0.5 nM). Dose-response assays in OCI-AML5 cell line were conducted similarly with the following modifications: 300 cells per well were seeded in 50 μL of cell line media and cell viability was evaluated after 4 days in culture.

[1] = system: OCI-AML5 cells expressing shRNAs targeting CDK1, 2, 4, 7, 9, cyclin K; test: Dose response in OCI-AML5 expressing shRNAs targeting CDK1, 2, 4, 7, 9, cyclin K or control; format: cell-based, H. sapiens; settings: for Class: class from shRNA IC50 profile and cyclin K-eGFP degradation; for class based on cellular selectivity: IC50 in shRNA OCI-AML5 cells and cyclin KeGFP degradation
[2] = system: OCI-AML5 cells expressing shRNA targeting CUL4A or CUL4B; test: Dose response in OCI-AML5 expressing shRNAs targeting CUL4A, CUL4B or control; format: cell-based, H. sapiens; settings: ratio of IC50 in shCUL4A vs shCTRL OCI-AML5 cells
CDK9/CyclinT = target: T1, CDK9/CyclinT (Homo sapiens, UniProt P50750); test: CDK9/CyclinT in vitro kinase activity, single concentration 1 μM; format: biochemical; settings: single concentration 1 μM
T1 construct: purchased BPS Bioscience 79628
Method: (§1) Kinase activity was assessed using the kinase assay kits from BPS Bioscience for CDK1, CDK9 and CDK12 with Kinase Glo MAX in duplicates. Compounds were tested at a single concentration of 1 μM for CDK1 and CDK9 activity, and in a dilution ranging from 0.64 nM to 50 μM for CDK12 activity. Chemiluminescence was read using the Neo Synergy BioTek plate reader.

CDK1 = target: T2, CDK1 (Homo sapiens, UniProt P06493); test: CDK1 in vitro kinase activity, single concentration 1 μM; format: biochemical; settings: single concentration 1 μM
T2 construct: purchased BPS Bioscience 79597
Method: as §1

[3] = Homo sapiens, OCI-AML-5, OCI-AML5 cells
[4] = Homo sapiens, OCI-AML-5, OCI-AML5 expressing shRNA CCNK (cyclin K), read-out: IC50 shRNA CCNK
[5] = Homo sapiens, OCI-AML-5, OCI-AML5 expressing shRNA CDK1, read-out: IC50 shRNA CDK1
[6] = Homo sapiens, OCI-AML-5, OCI-AML5 expressing shRNA CDK2, read-out: IC50 shRNA CDK2
[7] = Homo sapiens, OCI-AML-5, OCI-AML5 expressing shRNA CDK4, read-out: IC50 shRNA CDK4
[8] = Homo sapiens, OCI-AML-5, OCI-AML5 expressing shRNA CDK7, read-out: IC50 shRNA CDK7
[9] = Homo sapiens, OCI-AML-5, OCI-AML5 expressing shRNA CDK9, read-out: IC50 shRNA CDK9
[10] = OCI-AML5 expressing shRNA CCNK (cyclin K), read-out: IC50 shRNA CCNK
[11] = OCI-AML5 expressing shRNA CDK1, read-out: IC50 shRNA CDK1
[12] = OCI-AML5 expressing shRNA CDK2, read-out: IC50 shRNA CDK2
[13] = OCI-AML5 expressing shRNA CDK4, read-out: IC50 shRNA CDK4
[14] = OCI-AML5 expressing shRNA CDK7, read-out: IC50 shRNA CDK7
[15] = OCI-AML5 expressing shRNA CDK9, read-out: IC50 shRNA CDK9

T2 sequence (P06493 whole entry): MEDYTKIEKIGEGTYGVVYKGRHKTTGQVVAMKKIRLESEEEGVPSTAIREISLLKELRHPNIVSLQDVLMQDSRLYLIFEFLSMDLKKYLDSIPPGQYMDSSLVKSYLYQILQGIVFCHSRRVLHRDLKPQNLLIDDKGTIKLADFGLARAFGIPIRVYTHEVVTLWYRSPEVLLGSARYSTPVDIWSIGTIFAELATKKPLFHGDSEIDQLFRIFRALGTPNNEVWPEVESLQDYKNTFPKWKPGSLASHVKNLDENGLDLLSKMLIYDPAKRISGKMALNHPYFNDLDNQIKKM
T2 sequence (P14635 whole entry partner): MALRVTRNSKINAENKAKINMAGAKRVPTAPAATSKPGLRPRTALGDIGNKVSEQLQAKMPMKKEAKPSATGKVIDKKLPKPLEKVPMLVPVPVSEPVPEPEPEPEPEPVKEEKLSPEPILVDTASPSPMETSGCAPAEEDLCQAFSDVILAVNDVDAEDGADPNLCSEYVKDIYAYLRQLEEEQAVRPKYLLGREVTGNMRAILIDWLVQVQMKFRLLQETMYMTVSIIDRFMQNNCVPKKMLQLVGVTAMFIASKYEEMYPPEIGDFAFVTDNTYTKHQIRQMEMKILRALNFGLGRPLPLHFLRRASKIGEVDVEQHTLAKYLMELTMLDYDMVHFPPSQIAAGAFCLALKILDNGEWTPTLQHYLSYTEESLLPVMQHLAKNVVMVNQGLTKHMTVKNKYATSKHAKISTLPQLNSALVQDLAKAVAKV
T1 sequence (P50750 whole entry): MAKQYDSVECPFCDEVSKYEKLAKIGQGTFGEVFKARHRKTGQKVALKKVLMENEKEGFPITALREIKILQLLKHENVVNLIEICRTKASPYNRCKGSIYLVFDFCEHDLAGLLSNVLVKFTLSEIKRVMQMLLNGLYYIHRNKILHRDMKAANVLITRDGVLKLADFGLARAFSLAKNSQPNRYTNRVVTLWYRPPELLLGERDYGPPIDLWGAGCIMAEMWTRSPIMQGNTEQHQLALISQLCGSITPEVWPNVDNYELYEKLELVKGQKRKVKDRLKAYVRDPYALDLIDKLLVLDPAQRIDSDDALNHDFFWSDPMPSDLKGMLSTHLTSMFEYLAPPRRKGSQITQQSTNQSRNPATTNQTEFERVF
T1 sequence (O60563 whole entry partner): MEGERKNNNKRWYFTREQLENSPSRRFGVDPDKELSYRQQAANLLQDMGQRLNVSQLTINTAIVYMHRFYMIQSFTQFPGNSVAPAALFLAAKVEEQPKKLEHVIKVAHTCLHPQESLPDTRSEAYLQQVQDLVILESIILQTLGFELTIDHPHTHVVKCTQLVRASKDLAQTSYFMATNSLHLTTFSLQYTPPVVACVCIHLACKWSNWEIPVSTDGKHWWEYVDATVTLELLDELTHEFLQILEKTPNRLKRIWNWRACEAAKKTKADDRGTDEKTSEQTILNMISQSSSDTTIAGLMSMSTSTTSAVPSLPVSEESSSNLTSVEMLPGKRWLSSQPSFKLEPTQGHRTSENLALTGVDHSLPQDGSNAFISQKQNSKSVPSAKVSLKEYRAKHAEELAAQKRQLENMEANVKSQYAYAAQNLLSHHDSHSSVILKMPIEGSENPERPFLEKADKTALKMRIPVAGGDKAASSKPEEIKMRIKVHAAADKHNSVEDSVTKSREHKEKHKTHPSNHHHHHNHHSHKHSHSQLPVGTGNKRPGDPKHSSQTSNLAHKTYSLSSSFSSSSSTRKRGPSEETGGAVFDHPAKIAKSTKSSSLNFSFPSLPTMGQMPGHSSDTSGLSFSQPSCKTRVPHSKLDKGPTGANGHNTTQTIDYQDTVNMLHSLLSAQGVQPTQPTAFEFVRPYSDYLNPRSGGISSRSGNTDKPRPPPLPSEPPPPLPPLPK

| Compound | % degradation cyclin K-eGFP (cyclin KeGFP) [%] | IC50 (OCI-AML5 cells; [3]) [µM] | IC50 [1, 4] [µM] | IC50 [1, 5] [µM] | IC50 [1, 6] [µM] | IC50 [1, 7] [µM] | IC50 [1, 8] [µM] | IC50 [1, 9] [µM] | Class [1] | Ratio shCUL4A/shCTRL [2] | inhibition at 1 µM (CDK9/CyclinT) [%] | inhibition at 1 µM (CDK1) [%] | class based on cellular selectivity [1] | further results |
| --- | --- | --- | --- | --- | --- | --- | --- | --- | --- | --- | --- | --- | --- | --- |
| C=C(C(=O)Nc1ncc(SCc2cccnc2)s1)c1ccc(CC(C)C)cc1 [UOM-005430] | 60 | > 10 | 7.68 | 7.31 | > 10 | > 10 | > 10 | 7.71 | mixed 1-2 | 0.36 | 82 | 83 |  |  |
| CC(C)(C)OC(=O)N1CCC(CC(=O)Nc2ncc(SCc3cccnc3)s2)C1 (centres unmarked) [UOM-005226] | 2 | > 10 | > 10 | 6.25 | > 10 | > 10 | > 10 | > 10 | 2 | 1.24 | 39 | 46 |  |  |
| CC(=O)N1CCN(c2ccc(CC(=O)Nc3ncc(SCc4cccnc4)s3)cc2)CC1 [UOM-005614] | 0 | 1.73 | 1.37 | 0.648 | 1.72 | 2.15 | 1.4 | 0.743 | 2 | 0.67 | 84 | 43 | Class II |  |
| O=C(Cc1ccc(NC(=O)c2ccncc2)cc1)Nc1ncc(SCc2cccnc2)s1 [UOM-005476] | 1 | 0.66 | 0.576 | 0.35 | 0.574 | 0.626 | 0.646 | 0.27 | 2 | 0.87 | 66 | 87 | Class II |  |
| O=C(Cc1cnccn1)Nc1ncc(SCc2cccnc2)s1 [UOM-005482] | 0 | > 10 | > 10 | 3.22 | > 10 | > 10 | > 10 | 5.92 | 2 |  | 20 | 34 |  |  |
| O=C(Cc1ccc(CNC(=O)OCC2c3ccccc3-c3ccccc32)cc1)Nc1ncc(SCc2cccnc2)s1 [UOM-005432] | 5 |  |  |  |  |  |  |  | 2 | 1.02 |  |  | Class II | IC50 (OCI-AML5 cells; OCI-AML5 cells): 0.84 µM; IC50 [1, 10]: 0.753 µM; IC50 [1, 11]: 0.293 µM; IC50 [1, 12]: 0.886 µM; IC50 [1, 13]: 0.895 µM; IC50 [1, 14]: 0.807 µM; IC50 [1, 15]: 0.391 µM; % CDK9 inhibition (CDK9/CyclinT): 62%; % CDK1 inhibition (CDK1): 100% |
| O=C(Cc1ccc(I)cc1)Nc1ncc(SCc2cccnc2)s1 [UOM-005200] | 77 | 1.06 | 0.368 | 1.07 | 1.28 | 1.11 | 1.51 | 1.02 | 1 | 2.36 | 62 | 87 | Class I (effective cyclin K MGDs (decreased IC50 in cyclin K depleted cells only, and >65% degradation of cyclin KeGFP)) |  |
| O=C(Cc1ccc(Cl)cc1)Nc1ncc(SCc2cccnc2)s1 [UOM-005198] | 33 | 2.92 | 3.04 | 1.3 | 2.76 | 3.43 | 3.43 | 2.1 | 2 | 1.12 | 32 | 51 | Class II |  |
| O=C(Cc1ccccc1)Nc1ncc(SCc2cccnc2)s1 [UOM-005190] | 26 |  |  |  |  |  |  |  | 2 | 1.19 |  |  |  | IC50 (OCI-AML5 cells; OCI-AML5 cells): 2.38 µM; IC50 [1, 10]: 2.53 µM; IC50 [1, 11]: 0.815 µM; IC50 [1, 12]: 2.69 µM; IC50 [1, 13]: 3.28 µM; IC50 [1, 14]: 2.9 µM; IC50 [1, 15]: 1.66 µM; % CDK9 inhibition (CDK9/CyclinT): 24%; % CDK1 inhibition (CDK1): 79% |
| O=C(Cc1ccc(F)cc1)Nc1ncc(SCc2cccnc2)s1 [UOM-005197] | 24 | 2.79 | 3.58 | 1.35 | 2.69 | 3.4 | 3.36 | 1.81 | 2 | 1.15 | 57 | 59 | Class II |  |
| [N-]=[N+]=Nc1ccc(CC(=O)Nc2ncc(SCc3cccnc3)s2)cc1 [UOM-005062] | 45 | 2.18 | 0.921 | 1.28 | 2.31 | 2.62 | 2.52 | 1.49 | mixed 1-2 | 1.35 | 99 | 63 |  |  |

From publication PMC12152147, “DDB1 engagement defines the selectivity of S656 analogs for cyclin K degradation over CDK inhibition” (EMBO Reports, 2025)
